Assay results as given in the supplement of paper PMC13380429.

Legend:
Conditions in all cases: 72 h
Caco-2 [1] = assay: cell viability relative to DMSO; higher = less toxic
HepG2 [2] = assay: as above
U2OS [3] = assay: as above
Vero E6 [4] = assay: as above
Caco-2 [5] = assay: relative viability EC50 (midpoint between 100% and the lowest measured viability); higher = less toxic
HepG2 [6] = assay: as above
U2OS [7] = assay: as above
Vero E6 [8] = assay: as above
Caco-2 [9] = assay: drug sensitivity score (DSS) for viability; higher = more toxic; extreme values may be limits of the assay
HepG2 [10] = assay: as above
U2OS [11] = assay: as above
Vero E6 [12] = assay: as above
Calu-3 [13] = assay: cell viability relative to DMSO; higher = less toxic
Calu-3 [14] = assay: drug sensitivity score (DSS) for viability; higher = more toxic; extreme values may be limits of the assay

SMILES	cell viability (Caco-2 [1]; 1 nM) [%]	cell viability (Caco-2 [1]; 10 nM) [%]	cell viability (Caco-2 [1]; 100 nM) [%]	cell viability (Caco-2 [1]; 1000 nM) [%]	cell viability (Caco-2 [1]; 10000 nM) [%]	cell viability (HepG2 [2]; 1 nM) [%]	cell viability (HepG2 [2]; 10 nM) [%]	cell viability (HepG2 [2]; 100 nM) [%]	cell viability (HepG2 [2]; 1000 nM) [%]	cell viability (HepG2 [2]; 10000 nM) [%]	cell viability (U2OS [3]; 1 nM) [%]	cell viability (U2OS [3]; 10 nM) [%]	cell viability (U2OS [3]; 100 nM) [%]	cell viability (U2OS [3]; 1000 nM) [%]	cell viability (U2OS [3]; 10000 nM) [%]	cell viability (Vero E6 [4]; 1 nM) [%]	cell viability (Vero E6 [4]; 10 nM) [%]	cell viability (Vero E6 [4]; 100 nM) [%]	cell viability (Vero E6 [4]; 1000 nM) [%]	cell viability (Vero E6 [4]; 10000 nM) [%]	relative viability EC50 (Caco-2 [5]) [nM]	relative viability EC50 (HepG2 [6]) [nM]	relative viability EC50 (U2OS [7]) [nM]	relative viability EC50 (Vero E6 [8]) [nM]	drug sensitivity score (Caco-2 [9])	drug sensitivity score (HepG2 [10])	drug sensitivity score (U2OS [11])	drug sensitivity score (Vero E6 [12])	cell viability (Calu-3 [13]; 1 nM) [%]	cell viability (Calu-3 [13]; 10 nM) [%]	cell viability (Calu-3 [13]; 100 nM) [%]	cell viability (Calu-3 [13]; 1000 nM) [%]	cell viability (Calu-3 [13]; 10000 nM) [%]	drug sensitivity score (Calu-3 [14])
CC[C@H](C)[C@@H]([C@@H](CC(=O)N1CCC[C@H]1[C@H](OC)[C@@H](C)C(=O)N[C@@H](Cc1ccccc1)c1nccs1)OC)N(C)C(=O)[C@@H](NC(=O)[C@H](C(C)C)N(C)C)C(C)C [dolastatin-10]	51.5	40.6	35	32.2	20.8	24.5	32.5	32.5	29.4	22.2	35.8	22.7	15.4	15.6	11.1	38.5	24.6	18.4	17.9	9.9	< 1	< 1	< 1	< 1	31.3	34	40	39						
CC1=NN(c2ccc(C)c(C)c2)C(=O)/C1=N\Nc1cccc(-c2cccc(C(=O)O)c2)c1O [eltrombopag]	93.5	89.8	93.5	97.9	82.1	97.4	92	105	96.8	44.5	95.6	102	100	101	71.1	97.6	93.5	91.9	90.7	82.9	> 10000	2710		> 10000	0	3.4	1.2	0.8	114	102	100	96.7	74.3	1.5
Nc1nc2c(ncn2COC(CO)CO)c(=O)[nH]1 [ganciclovir]																										0	0	0						0
CCC(=O)O[C@@H]1CC(=O)O[C@H](C)C/C=C/C=C/[C@H](O)[C@H](C)C[C@H](CC=O)[C@H](O[C@@H]2O[C@H](C)[C@@H](O[C@H]3C[C@@](C)(O)[C@@H](OC(=O)CC)[C@H](C)O3)[C@H](N(C)C)[C@H]2O)[C@H]1OC [midecamycin]	94.4	99.1	103	91.8	91.4	103	93.1	91.5	98	74	97.1	97	99.2	96.2	97.6	105	97.7	101	102	95.2	> 10000		> 10000	> 10000	0	1.3	0	0						
CCCOc1ccc2[nH]c(NC(=O)OC)nc2c1 [oxibendazole]	94.8	93.7	107	96.4	63.1	91.1	95.8	94.6	103	54.4	101	95.2	101	102	47.5	95.1	96.3	90.2	63.8	41.9			3400	540	2.4	2.1	2.6	7.9	102	97.2	97.1	97.8	63	2.1
